The record followed here is patent US20210078988A1, “MODULATORS OF INDOLEAMINE 2,3-DIOXYGENASE” (GLAXOSMITHKLINE INTELLECTUAL PROPERTY DEVELOPMENT LIMITED, priority 2017, published 2021).

Each structure is given as a SMILES string.

T1 sequence (P14902 whole entry): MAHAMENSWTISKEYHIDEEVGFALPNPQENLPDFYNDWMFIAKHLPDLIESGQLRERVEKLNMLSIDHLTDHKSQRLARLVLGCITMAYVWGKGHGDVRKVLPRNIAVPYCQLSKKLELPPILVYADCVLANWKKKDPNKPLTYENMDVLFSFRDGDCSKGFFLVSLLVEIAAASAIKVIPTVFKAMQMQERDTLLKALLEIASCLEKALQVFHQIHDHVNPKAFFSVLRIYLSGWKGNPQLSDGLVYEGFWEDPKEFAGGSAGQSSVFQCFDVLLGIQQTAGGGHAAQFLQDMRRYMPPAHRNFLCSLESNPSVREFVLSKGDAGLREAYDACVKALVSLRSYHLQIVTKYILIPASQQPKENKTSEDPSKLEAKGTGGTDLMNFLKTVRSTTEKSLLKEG

The assay concerns the target T1, indoleamine 2, 3-dioxygenase (IDO1) (Homo sapiens, UniProt P14902).
T1 construct: human peripheral blood mononuclear cells (PBMC) (PB003F; host or cells: human PBMC stimulated with IFN-gamma and LPS
As to the kind of experiment: PBMC IDO1 assay (kynurenine detection via mass spectrometry). Type of assay: cell-based. The conditions noted are these: human PBMC stimulated with IFN-γ and LPS, 2 days, kynurenine by mass spectrometry; read-out: IDO1 PBMC pIC50 (converted). The procedure, abridged: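 Human PBMCs (50,000/well) stimulated with IFN-γ 100 ng/ml and LPS 50 ng/ml were exposed to 11-point 3-fold compound dilutions for 2 days at 37 °C. Supernatant kynurenine was quantified by RapidFire MS relative to an internal standard; parallel CellTiter-Glo ATP luminescence measured cytotoxicity, with four-parameter curve fitting.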
In the case of `CC(C)(C)COC(=O)N1CCC(CC(NC(=O)c2ccc(Cl)cc2)c2ccccc2)CC1` (stereo not drawn) [Example 187, neopentyl 4-(2-(4-chlorobenzamido)-2-phenylethyl)piperidine-1-carboxylate], the IC50 was 158 nM.
Regarding `CC(C)OC(=O)N1CCC(C[C@@H](NC(=O)c2ccc(Cl)s2)C2CC2)CC1` [Example 188, (R)-isopropyl 4-(2-(5-chlorothiophene-2-carboxamido)-2-cyclopropylethyl)piperidine-1-carboxylate], the IC50 is 158 nM.
For `CC(C)(C)OC(=O)N1CCC(CC(NC(=O)c2ccc(C#N)nc2)c2ccccc2)CC1` (stereo not drawn) [Example 189, tert-butyl 4-(2-(6-cyanonicotinamido)-2-phenylethyl)piperidine-1-carboxylate], the IC50 is 200 nM.
As to `CC(C)(C)OC(=O)N1CCC(CC(NC(=O)C2CCCCC2)c2ccccc2)CC1` (stereo not drawn) [Example 190, tert-butyl 4-(2-(cyclohexanecarboxamido)-2-phenylethyl)piperidine-1-carboxylate], the IC50 was 200 nM.
With `Cc1ncc(C(=O)NC(CC2CCN(C(=O)OC(C)(C)C)CC2)c2ccccc2)s1` (stereo not drawn) [Example 191, tert-butyl 4-(2-(2-methylthiazole-5-carboxamido)-2-phenylethyl)piperidine-1-carboxylate] the figure was 200 nM; with `CCCOc1ccc(C(=O)NC(CC2CCN(C(=O)OC(C)(C)C)CC2)c2ccccc2)cc1` (stereo not drawn) [Example 192, tert-butyl 4-(2-phenyl-2-(4-propoxybenzamido)ethyl)piperidine-1-carboxylate], 200 nM.
Turning to `O=C(NC(CC1CCN(S(=O)(=O)C2CCCC2)CC1)c1ccccc1)c1ccc(Cl)cc1` (stereo not drawn) [Example 193, 4-chloro-N-(2-(1-(cyclopentylsulfonyl)piperidin-4-yl)-1-phenylethyl)benzamide], the IC50 is 200 nM.
`CC(C)(C)OC(=O)N1CCC(CC(NC(=O)c2ccccc2O)c2ccccc2)CC1` (stereo not drawn) [Example 194, tert-butyl 4-(2-(2-hydroxybenzamido)-2-phenylethyl)piperidine-1-carboxylate]: the IC50 was 251 nM.
Turning to `CC(C)(C)OC(=O)N1CCC(CC(NC(=O)c2ccc(O)cc2)c2ccccc2)CC1` (stereo not drawn) [Example 195, tert-butyl 4-(2-(4-hydroxybenzamido)-2-phenylethyl)piperidine-1-carboxylate], the IC50 was 251 nM.
Take `CC(C)(C)OC(=O)N1CCC(CC(NC(=O)c2ccc(O)c(F)c2)c2ccccc2)CC1` (stereo not drawn) [Example 196, tert-butyl 4-(2-(3-fluoro-4-hydroxybenzamido)-2-phenylethyl)piperidine-1-carboxylate]: the IC50 is 251 nM.
As to `O=C(NC(CC1CCN(S(=O)(=O)N2CCCCC2)CC1)c1ccccc1)c1ccc(Cl)cc1` (stereo not drawn) [Example 197, 4-chloro-N-(1-phenyl-2-(1-(piperidin-1-ylsulfonyl)piperidin-4-yl)ethyl)benzamide], the IC50 is 251 nM.
As for `CC(C)(C)OC(=O)N1CCC(CC(NC(=O)c2ccc(F)cc2)c2nc(C3CCCC3)no2)CC1` (stereo not drawn) [Example 198, tert-butyl 4-(2-(3-cyclopentyl-1,2,4-oxadiazol-5-yl)-2-(4-fluorobenzamido)ethyl)piperidine-1-carboxylate], the IC50 is 251 nM.
Regarding `CC(C)(C)OC(=O)N1CCC(CC(NC(=O)c2cccc(Cl)c2)c2ccccc2)CC1` (stereo not drawn) [Example 199, tert-butyl 4-(2-(3-chlorobenzamido)-2-phenylethyl)piperidine-1-carboxylate], the IC50 was 316 nM.
Regarding `CC(C)(C)OC(=O)N1CCC(CC(NC(=O)Nc2ccc(F)cc2)c2ccccc2)CC1` (stereo not drawn) [Example 200, tert-butyl 4-(2-(3-(4-fluorophenyl)ureido)-2-phenylethyl)piperidine-1-carboxylate], the IC50 was 316 nM.
For the compound `CC(C)(C)OC(=O)N1CCC(CC(NC(=O)C23CCC(CC2)CC3)c2ccccc2)CC1` (stereo not drawn) [Example 201, tert-butyl 4-(2-(bicyclo[2.2.2]octane-1-carboxamido)-2-phenylethyl)piperidine-1-carboxylate], the IC50 was 316 nM.
With `COCCOc1ccc(C(CC2CCN(C(=O)OC(C)(C)C)CC2)NC(=O)c2ccc(F)cc2)cn1` (stereo not drawn) [Example 202, tert-butyl 4-(2-(4-fluorobenzamido)-2-(6-(2-methoxyethoxy)pyridin-3-yl)ethyl)piperidine-1-carboxylate], the IC50 is 316 nM.
With `CC(C)(C)OC(=O)N1CCC(CC(NC(=O)c2ccc(F)c(Cl)c2)c2ccccc2)CC1` (stereo not drawn) [Example 203, tert-butyl 4-(2-(3-chloro-4-fluorobenzamido)-2-phenylethyl)piperidine-1-carboxylate] the figure was 316 nM; with `Cc1ccc(C(=O)NC(CC2CCN(C(=O)OC(C)(C)C)CC2)c2ccccc2)o1` (stereo not drawn) [Example 204, tert-butyl 4-(2-(5-methylfuran-2-carboxamido)-2-phenylethyl)piperidine-1-carboxylate], 316 nM.
For `CC(C)(C)OC(=O)N1CCC(CC(NC(=O)c2ccc(Cl)c(Cl)c2)c2ccccc2)CC1` (stereo not drawn) [Example 205, tert-butyl 4-(2-(3,4-dichlorobenzamido)-2-phenylethyl)piperidine-1-carboxylate] the value was 316 nM.
In the case of `COC(=O)N1CCC(C[C@@H](NC(=O)c2ccc(Cl)s2)C2CC2)CC1` [Example 206, (R)-methyl 4-(2-(5-chlorothiophene-2-carboxamido)-2-cyclopropylethyl)piperidine-1-carboxylate], the IC50 was 316 nM.
`CC(C)(C)OC(=O)N1CCC(CC(NC(=O)c2ccc(F)cc2)c2cccnc2)CC1` (stereo not drawn) [Example 207, tert-butyl 4-(2-(4-fluorobenzamido)-2-(pyridin-3-yl)ethyl)piperidine-1-carboxylate]: the IC50 is 398 nM.
Consider `CC(C)(C)OC(=O)N1CCC(CC(NC(=O)c2ccc(F)cc2)c2ccncc2)CC1` (stereo not drawn) [Example 208, tert-butyl 4-(2-(4-fluorobenzamido)-2-(pyridin-4-yl)ethyl)piperidine-1-carboxylate], for which the IC50 is 398 nM.
For the compound `CC(C)(C)OC(=O)N1CCC(CC(NC(=O)C2CCCCCC2)c2ccccc2)CC1` (stereo not drawn) [Example 209, tert-butyl 4-(2-(cycloheptanecarboxamido)-2-phenylethyl)piperidine-1-carboxylate], the IC50 is 398 nM.
Turning to `CC(C)(C)CC(=O)NC(CC1CCN(C(=O)OC(C)(C)C)CC1)c1ccccc1` (stereo not drawn) [Example 210, tert-butyl 4-(2-(3,3-dimethylbutanamido)-2-phenylethyl)piperidine-1-carboxylate], the IC50 is 398 nM.
Consider `CC(C)(C)OC(=O)N1CCC(CC(NC(=O)c2cc(F)ccc2F)c2ccccc2)CC1` (stereo not drawn) [Example 211, tert-butyl 4-(2-(2,5-difluorobenzamido)-2-phenylethyl)piperidine-1-carboxylate], for which the IC50 was 398 nM.
In the case of `CC(C)c1ccc(C(=O)NC(CC2CCN(C(=O)OC(C)(C)C)CC2)c2ccccc2)cc1` (stereo not drawn) [Example 212, tert-butyl 4-(2-(4-isopropylbenzamido)-2-phenylethyl)piperidine-1-carboxylate], the IC50 was 398 nM.
With `Cc1cc(C(=O)NC(CC2CCN(C(=O)OC(C)(C)C)CC2)c2ccccc2)ccc1F` (stereo not drawn) [Example 213, tert-butyl 4-(2-(4-fluoro-3-methylbenzamido)-2-phenylethyl)piperidine-1-carboxylate] the figure was 398 nM.
For `CC(C)(C)OC(=O)N1CCC(C[C@@H](NC(=O)c2ccc(Cl)s2)C2CC2)CC1` [Example 214, (R)-tert-butyl 4-(2-(5-chlorothiophene-2-carboxamido)-2-cyclopropylethyl)piperidine-1-carboxylate], the IC50 is 398 nM.
For `O=C(NC(CC1CCN(S(=O)(=O)c2ccccc2)CC1)c1ccccc1)c1ccc(Cl)cc1` (stereo not drawn) [Example 215, 4-chloro-N-(1-phenyl-2-(1-(phenylsulfonyl)piperidin-4-yl)ethyl)benzamide], the IC50 was 398 nM.
In the case of `COc1cccc(C(=O)NC(CC2CCN(C(=O)OC(C)(C)C)CC2)c2ccccc2)c1` (stereo not drawn) [Example 216, tert-butyl 4-(2-(3-methoxybenzamido)-2-phenylethyl)piperidine-1-carboxylate], the IC50 is 501 nM.
On to `Cc1ccc(C(=O)NC(CC2CCN(C(=O)OC(C)(C)C)CC2)c2ccccc2)cn1` (stereo not drawn) [Example 217, tert-butyl 4-(2-(6-methylnicotinamido)-2-phenylethyl)piperidine-1-carboxylate], for which the IC50 is 501 nM.
Take `Cc1ccc(C(=O)NC(CC2CCN(C(=O)OC(C)(C)C)CC2)c2ccccc2)c(F)c1` (stereo not drawn) [Example 218, tert-butyl 4-(2-(2-fluoro-4-methylbenzamido)-2-phenylethyl)piperidine-1-carboxylate]: the IC50 was 501 nM.
With `CC(C)(C)OC(=O)N1CCC(CC(NC(=O)c2ccccc2F)c2ccccc2)CC1` (stereo not drawn) [Example 219, tert-butyl 4-(2-(2-fluorobenzamido)-2-phenylethyl)piperidine-1-carboxylate], the IC50 is 501 nM.
`CC(C)(C)OC(=O)N1CCC(CC(NC(=O)c2ccc[nH]2)c2ccccc2)CC1` (stereo not drawn) [Example 220, tert-butyl 4-(2-phenyl-2-(1H-pyrrole-2-carboxamido)ethyl)piperidine-1-carboxylate]: the IC50 was 501 nM.
For `CC(C)(C)OC(=O)N1CCC(CC(NC(=O)c2ccc(F)cc2)c2nnc(C3CC3)o2)CC1` (stereo not drawn) [Example 221, tert-butyl 4-(2-(5-cyclopropyl-1,3,4-oxadiazol-2-yl)-2-(4-fluorobenzamido)ethyl)piperidine-1-carboxylate] the value was 501 nM.
In the case of `CC(=O)N1CCC(CC(NC(=O)c2ccc(Cl)cc2)c2ccccc2)CC1` (stereo not drawn) [Example 222, N-(2-(1-acetylpiperidin-4-yl)-1-phenylethyl)-4-chlorobenzamide], the IC50 was 501 nM.
